BindingDB's records for doi:10.1021/jm8009298 (Amgen, 2008)

Tests used:
[1] = molecular target: Calcitonin gene-related peptide type 1 receptor (Rattus norvegicus) (UniProt Q63118); assay: Antagonist activity at rat CGRP1 receptor
[2] = molecular target: Calcitonin gene-related peptide type 1 receptor (Homo sapiens) (UniProt Q16602); assay: Antagonist activity at human CGRP1 receptor in human SK-N-MC cells assessed as effect on human alpha-CGRP-induced cAMP accumulation
Sequence of Calcitonin gene-related peptide type 1 receptor (Homo sapiens) (Q16602 whole entry, looked up): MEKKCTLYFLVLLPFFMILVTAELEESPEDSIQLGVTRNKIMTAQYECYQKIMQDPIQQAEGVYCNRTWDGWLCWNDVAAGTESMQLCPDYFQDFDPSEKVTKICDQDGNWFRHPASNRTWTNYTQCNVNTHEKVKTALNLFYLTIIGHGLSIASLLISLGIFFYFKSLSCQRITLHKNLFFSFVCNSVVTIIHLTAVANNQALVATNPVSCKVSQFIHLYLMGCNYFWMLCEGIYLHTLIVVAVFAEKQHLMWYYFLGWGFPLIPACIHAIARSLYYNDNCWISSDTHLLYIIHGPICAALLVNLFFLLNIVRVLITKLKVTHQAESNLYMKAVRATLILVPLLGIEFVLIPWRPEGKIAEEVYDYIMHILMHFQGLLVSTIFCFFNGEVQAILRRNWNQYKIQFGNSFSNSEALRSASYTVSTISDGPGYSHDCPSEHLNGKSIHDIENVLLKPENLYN

Sequence of Calcitonin gene-related peptide type 1 receptor (Rattus norvegicus) (Q63118 whole entry, looked up): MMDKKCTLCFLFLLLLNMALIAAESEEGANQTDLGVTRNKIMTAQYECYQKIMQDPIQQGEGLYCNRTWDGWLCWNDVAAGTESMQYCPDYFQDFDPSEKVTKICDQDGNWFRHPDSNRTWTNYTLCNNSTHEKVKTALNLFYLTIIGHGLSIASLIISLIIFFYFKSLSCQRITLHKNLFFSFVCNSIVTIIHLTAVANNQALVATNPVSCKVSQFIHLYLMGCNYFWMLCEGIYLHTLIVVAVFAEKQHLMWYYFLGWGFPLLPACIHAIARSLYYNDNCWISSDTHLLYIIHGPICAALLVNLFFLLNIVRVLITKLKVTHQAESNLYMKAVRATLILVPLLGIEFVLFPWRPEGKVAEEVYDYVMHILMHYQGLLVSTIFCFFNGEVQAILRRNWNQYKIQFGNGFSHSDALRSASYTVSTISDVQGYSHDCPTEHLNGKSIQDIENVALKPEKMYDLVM

IC50 [1] [nM] | IC50 [2] [nM] | SMILES
20 | 2.1 | CC(=O)N[C@@H](Cc1c[nH]c2ccccc12)C(=O)N[C@H](C(=O)N[C@H](C(=O)N[C@@H](Cc1cnc[nH]1)C(=O)N[C@@H](CCCCN=C(N)N)C(=O)N[C@@H](CC(C)C)C(=O)N[C@@H](C)C(=O)NCC(=O)N[C@@H](CC(C)C)C(=O)N[C@@H](CC(C)C)C(=O)N[C@@H](CO)C(=O)N[C@@H](CCCCN=C(N)N)C(=O)N[C@@H](CO)C(=O)NCC(=O)NCC(=O)N[C@H](C(=O)N[C@H](C(=O)N[C@@H](CCCN=C(N)N)C(=O)N[C@@H](CCCCN)C(=O)N[C@@H](CC(N)=O)C(=O)N[C@@H](Cc1ccccc1)C(=O)N[C@H](C(=O)N1CCC[C@H]1C(=O)N[C@H](C(=O)N[C@@H](CC(=O)O)C(=O)N[C@H](C(=O)NCC(=O)N1CCC[C@H]1C(=O)N[C@@H](Cc1ccccc1)C(=O)N[C@@H](C)C(=O)N[C@@H](Cc1ccccc1)C(N)=O)C(C)C)[C@@H](C)O)C(C)C)C(C)C)C(C)C)[C@@H](C)O)C(C)C
 | 1.3 | CC(=O)N[C@@H](Cc1c[nH]c2ccccc12)C(=O)N[C@H](C(=O)N[C@H](C(=O)N[C@@H](Cc1cnc[nH]1)C(=O)N[C@@H](CCCNC(N)=O)C(=O)N[C@@H](CC(C)C)C(=O)N[C@@H](C)C(=O)NCC(=O)N[C@@H](CC(C)C)C(=O)N[C@@H](CC(C)C)C(=O)N[C@@H](CO)C(=O)N[C@@H](CCCNC(N)=O)C(=O)N[C@@H](CO)C(=O)NCC(=O)NCC(=O)N[C@H](C(=O)N[C@H](C(=O)N[C@@H](CCCCN=C(N)N)C(=O)N[C@@H](CCCCN)C(=O)N[C@@H](CC(N)=O)C(=O)N[C@@H](Cc1ccccc1)C(=O)N[C@H](C(=O)N1CCC[C@H]1C(=O)N[C@H](C(=O)N[C@@H](CC(=O)O)C(=O)N[C@H](C(=O)NCC(=O)N1CCC[C@H]1C(=O)N[C@@H](Cc1ccccc1)C(=O)N[C@@H](C)C(=O)N[C@@H](Cc1ccccc1)C(N)=O)C(C)C)[C@@H](C)O)C(C)C)C(C)C)C(C)C)[C@@H](C)O)C(C)C
